Measurements from PubChem BioAssay AID588780 (Sanford-Burnham Center for Chemical Genomics, 2011).
The source made the active and inactive calls.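 How the source made its calls: active means compounds whose fitted half-maximal concentration in the cell-protection dose series is at or below a set limit; inactive means the rest.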

tested on: H9c2 cardiomyocytes, 2-deoxyglucose stress, ATP luminescence, 2 h; assay: H9c2 cell survival under 2-deoxyglucose stress – uHTS hits, dose response (AID 588780)

Row | SMILES | IC50
1 | c1coc(-c2nnc3sc(-c4cccs4)nn23)c1 | > 79 µM (inactive)
2 | COc1ccccc1-c1cc2nc(-c3ccccc3)cc(N3CCN(C(=O)c4ccco4)CC3)n2n1 | > 79 µM (inactive)
3 | Cn1c(-n2c(CCCN3C(=O)c4ccccc4C3=O)nc3ccccc3c2=O)nc2ccccc21 | 26.4 µM
4 | CCN1C(=O)[C@H]2[C@@H](c3ccc(-c4ccc(C(C)=O)cc4)cc3)N[C@@](C)(C(=O)OC)[C@H]2C1=O | > 79 µM (inactive)
5 | CSc1nc2ccc(S(=O)(=O)Nc3c(C)n(C)n(-c4ccccc4)c3=O)cc2s1 | > 79 µM (inactive)
6 | Cc1ccc(C(C)C)c(OCC(=O)NNC(=O)Cn2[nH]c(=O)c3ccccc3c2=O)c1 | 75.1 µM (inactive)
7 | CCOc1cccc(-c2nn3c(-c4ccccn4)nnc3s2)c1 | > 79 µM (inactive)
8 | O=C(Cn1[nH]c(=O)c2ccccc2c1=O)OCC(=O)N1CCc2ccccc2C1 | > 79 µM (inactive)
9 | COc1ccc(CN(C)C(=O)C(Cc2ccccc2)NC(=O)c2ccccc2)cc1F (configuration not stated) | 7.05 µM
10 | CCN(CC(=O)Nc1c(F)cccc1F)C(=O)Cc1n[nH]c(=O)c2ccccc12 | > 79 µM (inactive)
11 | CCOC(=O)c1cnc(Nc2nc3ccccc3o2)nc1CSc1nnc(C)s1 | > 79 µM (inactive)
12 | NS(=O)(=O)c1ccc(CCNc2ccn3nc(-c4ccc(OCCN5CCOCC5)cc4)cc3n2)cc1 | 37.3 µM (inactive)
13 | Cc1cc(C)c2ccc(N)nc2c1O | > 79 µM (inactive)
14 | Cc1ccc(-c2n[nH]c(=O)c3ccccc23)cc1S(=O)(=O)Nc1ccccc1 | > 79 µM (inactive)
15 | COc1ccc(OC)c(/C=N/Nc2nncn2/N=C/c2cc(OC)ccc2OC)c1 | > 79 µM (inactive)
16 | Cc1cc(C)n(-c2ccc3cccc(NS(C)(=O)=O)c3n2)n1 | > 79 µM (inactive)
17 | CC(=O)Nc1cccc(NC(=O)c2cc(-c3cccnc3)nc3ccc(Cl)cc23)c1 | > 79 µM (inactive)
18 | Cc1cc(C(=O)COc2ccccc2C(N)=O)c(C)n1C | 25.3 µM
19 | COc1cccc(/C=N/NC(=O)c2nc(-c3ccccc3)cc(-c3ccccc3)n2)c1 | > 79 µM (inactive)
20 | CC(C)CC(C(=O)NC1CCCCC1)N(Cc1cccs1)C(=O)c1snc(C(N)=O)c1N (configuration not stated) | 30.1 µM (inactive)
21 | CCOC(=O)C(Cc1ccc(NC(=O)/C(=C/c2ccc(OC(C)=O)cc2)NC(C)=O)cc1)N1C(=O)c2ccccc2C1=O (configuration not stated) | > 79 µM (inactive)
22 | CC(C)(C)OC(=O)N1CCC[C@H]1c1nnc(SCC(=O)Nc2ccc(Br)cc2)o1 | 17.7 µM
23 | CCOc1ccc(C(C(=O)NC2CCCC2)N(C(=O)c2snc(C(N)=O)c2N)c2cccc(O)c2)cc1 (configuration not stated) | > 79 µM (inactive)

Row | SMILES | IC50
24 | CCN1CCN(c2nc3c(c(=O)[nH]2)CCCC3)CC1 | > 79 µM (inactive)
25 | COc1cccc(C(=O)Nc2nnc(-c3ccc(Cl)cc3)o2)c1 | 14.9 µM
26 | COc1ccc(OC)c(NC(=O)c2sc3ncnc(N4CCN(c5ccccn5)CC4)c3c2C)c1 | > 79 µM (inactive)
27 | C/C(=N/NC(=O)c1cccs1)c1cccc(NC(=O)C2CC2)c1 | > 79 µM (inactive)
28 | Fc1ccc(NC(=S)Nc2ccc3nccnc3c2)cc1 | > 79 µM (inactive)
29 | CC(=O)Nc1cc(-c2ccc(C(=O)NC3CC3)cc2)cn2c(-c3cccc(C(C)=O)c3)cnc12 | > 79 µM (inactive)
30 | Cc1ccc(NC(=O)CSC(C)C(=O)OCc2cc(=O)oc3cc(O)ccc23)cc1 (configuration not stated) | > 79 µM (inactive)
31 | CCc1nc(N2CCN(C(=O)c3ccco3)CC2)c2oc3ccccc3c2n1 | > 79 µM (inactive)
32 | C/C(=N\NC(=O)CCCNc1ccc(C)cc1)c1ccccn1 | > 79 µM (inactive)
33 | Cc1c(Cl)cnc(NC(=O)COC(=O)c2ccc([N+](=O)[O-])s2)c1Cl | > 79 µM (inactive)
34 | CCC1(C)Cc2c(sc3nc(NN)n(C)c(=O)c23)CO1 (configuration not stated) | > 79 µM (inactive)
35 | COc1cc(/C=N\NC(=O)c2cccnc2)ccc1OC(=O)c1ccccc1Cl | > 79 µM (inactive)
36 | CC1Nc2ncnc(N3CCN(c4ccccc4)CC3)c2N(Cc2ccc(Cl)cc2)C1=O (configuration not stated) | 12.7 µM
37 | O=C(CN1C(=O)C2C3C=CC(C3)C2C1=O)Nc1nc(-c2ccccn2)cs1 (configuration not stated) | 29 µM
38 | CCOc1ccccc1N1CC(O)=C(c2nc3ccccc3s2)C1=N | > 79 µM (inactive)
39 | COc1cc(NC(=O)c2ccco2)c(C(=O)OCC(=O)c2c[nH]c3ccccc23)cc1OC | 7.59 µM
40 | CCN(CC(=O)Nc1cc(Cl)ccc1C)C(=O)C1CCN(c2ncnc3sc(C)c(C)c23)CC1 | > 79 µM (inactive)
41 | COc1ccc(CCNC(=O)c2cc3c(C)nccc3[nH]c2=O)cc1OC | 16.3 µM
42 | CCC(=O)OCCNc1cc(SCCC(=O)OC)c2nonc2c1[N+](=O)[O-] | > 79 µM (inactive)
43 | COc1ccc(NC(=O)c2cc(-c3ccccn3)nc3ccccc23)cc1S(=O)(=O)N(C)C | > 79 µM (inactive)
44 | Cc1cc(C)c(OCC(=O)Nc2nc(-c3ccccn3)cs2)c(C)c1 | > 79 µM (inactive)
45 | COc1cccc(OC)c1C(=O)Nc1ccc(Br)c(C(=O)c2ccccc2)c1 | 10.7 µM
46 | CCc1nc2ccccc2c(C(=O)OCc2nc3ccccc3c(=O)[nH]2)c1C | 23.1 µM

Row | SMILES | IC50
47 | CCC(=O)Oc1cccc(C(=O)Nc2ccc(-c3nnc(-c4ccco4)o3)cc2)c1 | > 79 µM (inactive)
48 | CCCn1c(=O)c2[nH]c(-c3ccc(OCC(=O)Nc4ccc(C#N)cc4)cc3)nc2n(CCC)c1=O | > 79 µM (inactive)
49 | O=C(N/N=C/c1cn(-c2ccccc2)nc1-c1cccs1)c1ccccc1F | > 79 µM (inactive)
50 | NC(=O)c1c(NC(=O)Cn2nc(C(=O)O)c3ccccc3c2=O)sc2c1CCC2 | > 79 µM (inactive)
51 | CNC(=O)c1ccc(-c2sc3nc(N4CCOCC4)c4c(c3c2N)CC(C)(C)OC4)o1 | 13.2 µM
52 | C[C@@H](OC(=O)c1[nH]cnc1C(=O)NCc1ccc(CNC(=O)OC(C)(C)C)cc1)c1ccccc1 | > 79 µM (inactive)
53 | COc1cc(-c2cc(NC=O)c3ncc(-c4cccc(C(F)(F)F)c4)n3c2)cc(OC)c1OC | > 79 µM (inactive)
54 | COc1cccc(C(=O)CSc2nnc(-c3cc(OC)c(OC)c(OC)c3)o2)c1 | > 79 µM (inactive)
55 | COc1ccc(CC(=O)NCC(=O)N/N=C/c2cc(Br)ccc2OC)cc1 | > 79 µM (inactive)
56 | O=C(NCC(=O)N(Cc1ccccc1)C(C(=O)NC1CCCCC1)c1ccco1)c1ccco1 (configuration not stated) | 16.2 µM
57 | O=C(Nc1ccc2c(c1)[nH]c(=O)c1ccccc12)C(F)(F)F | > 79 µM (inactive)
58 | CC(C)(C)N=Cc1c(O)ccc2oc3c(c12)CCCC3 | > 79 µM (inactive)
59 | CCOC(=O)N1CCN(C(=O)CSc2nc3ccccc3c(=O)n2-c2ccccc2)CC1 | 33.6 µM (inactive)
60 | CN(C)C(=O)C1C2NC(=S)N(c3cccc(Cl)c3)C1(C)Oc1ccc(Cl)cc12 (configuration not stated) | 66.7 µM (inactive)
61 | CC(Oc1ccccc1)C(=O)Nc1nc(-c2ccccn2)cs1 (configuration not stated) | > 79 µM (inactive)
62 | COC(=O)c1cc(Cl)c(NC(=O)/C=C/c2ccc(OC)c(OC)c2)cc1OC | > 79 µM (inactive)
63 | N#CC(c1nc2ccccc2nc1N1CCCC1)S(=O)(=O)c1cccs1 (configuration not stated) | 34.1 µM (inactive)
64 | COc1cc(NC(=O)c2ccco2)c(OC)cc1NC(=O)c1cc(OC)c(OC)c(OC)c1 | > 79 µM (inactive)
65 | COC(=O)Cc1n[nH]c(=O)c2ccccc12 | > 79 µM (inactive)
66 | CCC(Oc1ccccc1)C(=O)Nc1ccccc1C(=O)N1CCCCC1 (configuration not stated) | 25.3 µM
67 | COc1ccc(CCNC(=O)C(=O)NCC2CCCN2S(=O)(=O)c2cc(C)ccc2C)cc1 (configuration not stated) | > 79 µM (inactive)
